# Patent US20120059240A1, “METHOD FOR PREPARATION OF MICELLAR HYBRID NANOPARTICLES FOR THERAPEUTIC AND DIAGNOSTIC APPLICATIONS AND COMPOSITIONS THEREOF” (MASSACHUSETTS INSTITUTE OF TECHNOLOGY, priority 2008, published 2012)
# System: MDA-MB-435 human carcinoma cells
# Test: Intracellular drug delivery of DOX (fluorescence microscopy)
# Assay type: cell-based
# Conditions: after 30 min of incubation
# Protocol: For in vitro studies, MDA-MB-435 human carcinoma cells were maintained in Dulbecco's Modified Eagle's Medium (DMEM) supplemented with 10% fetal bovine serum (FBS) and 100 μg/ml penicillin-streptomycin. For fluorescence microscopy, the cells (3000 cells per well) were seeded into 8-well chamber slides (Lab-Tek) overnight. The cells were then incubated with 50 μg of MHN or F3-MHN per well for 2 h (for intracellular targeting) and 50 μg of DOX-loaded F3-MHN (0.093 mg DOX per mg MHN) or 4.5 μg of free DOX (equivalent with DOX amount for DOX-loaded F3-MHN) physically mixed with 50 μg of F3-MHN per well for 30 min, 2 h, and 24 h (for intracellular drug delivery) at 37° C. in the presence of 10% FBS. For the intracellular targeting study, the cells were observed without any fixation using an inverted fluorescence microscope (Nikon, Tokyo, Japan). For the intracellular drug delivery study, the cells were fixed with 4% paraformaldehyde for 20 min, mounted in Vectashield Mounting Medium with 4′,6-diamidino-2-phenylindole (DAPI; Vector Laboratories, Burlingame, Calif.), and observed with a fluorescence microscope. […]
compound,measurement,value
"COc1cccc2c1C(=O)c1c(O)c3c(c(O)c1C2=O)C[C@@](O)(C(=O)CO)C[C@@H]3O[C@H]1C[C@H](N)[C@H](O)[C@H](C)O1 [free DOX, doxorubicin]",Location of DOX fluorescence signal in cells,almost all of the DOX fluorescence signal was observed in the cell nuclei
